Assay results reported in publication PMC9230533, “Discovery of Triple Inhibitors of Both SARS-CoV-2 Proteases and Human Cathepsin L” (Pharmaceuticals, 2022).
Read-outs that look alike come from different tables or passages of the source.

How the values were obtained:
[1] = test system: SARS-CoV-2; test: SARS-CoV-2 infectivity cells-based assay (Huh7.5.1, immunofluorescence), antiviral efficacy; format: cell-based; details: for EC50: Severe acute respiratory syndrome coronavirus 2, Huh-7.5.1, 48 h, read-out: SARS-CoV-2 Infectivity Cells-Based Assay EC50; for CC50/EC50 Ratio (therapeutic ratio): CC50 over EC50
[2] = Cell viability / cytotoxicity in the SARS-CoV-2 Huh7.5.1 infectivity assay; details: human, Huh7.5.1 cells infected with SARS-CoV-2 (MOI 1.0), tested 60 to 0.08 µM, read-out: SARS-CoV-2 Infectivity Cells-Based Assay CC50 (converted)
[3] = target: SARS-CoV-2 PLpro (Severe acute respiratory syndrome coronavirus 2, UniProt P0DTD1); test: SARS-CoV-2 PLpro fluorogenic enzymatic inhibition assay; format: biochemical
[4] = target: T1, human cathepsin L (Homo sapiens, UniProt P07711); test: Human cathepsin L fluorogenic enzymatic inhibition assay; format: biochemical; details: for inhibitory effect on cathepsin L (in words): dose-response, Figure 4
T1 construct: purchased R & D Systems

[5] = target: SARS-CoV-2 Mpro (Severe acute respiratory syndrome coronavirus 2, UniProt P0DTD1); test: SARS-CoV-2 Mpro fluorometric (FRET peptide) enzymatic inhibition assay; format: biochemical; details: for fold more potent than disulfiram against Mpro: ratio of IC50 values vs disulfiram
[6] = test system: SARS-CoV PLpro; details: cited from earlier work
[7] = cited from earlier work
[8] = Oral median lethal dose in mice (literature); format: in vivo; details: mouse, ratio of cited LD50 values
[9] = 1 nM cathepsin L, Z-Phe-Arg-AMC substrate, read-out: Cathepsin L IC50
[10] = 24.46 nM PLpro, 50 µM Z-RLRGG-AMC, no DTT, 37 °C, read-out: PLpro IC50
[11] = 50 nM Mpro, 10 µM MCA-[…]-K(DNP)-K-NH2, no DTT, 37 °C, read-out: Mpro IC50

T1 sequence (P07711 114-333): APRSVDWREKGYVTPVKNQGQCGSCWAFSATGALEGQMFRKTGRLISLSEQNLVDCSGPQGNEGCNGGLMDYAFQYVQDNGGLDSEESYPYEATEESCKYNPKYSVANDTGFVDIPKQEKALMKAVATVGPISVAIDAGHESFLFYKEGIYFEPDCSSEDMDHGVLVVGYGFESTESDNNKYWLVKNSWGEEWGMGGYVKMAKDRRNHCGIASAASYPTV

Row | Compound | EC50 [1] [µM] | CC50 at 48 h [2] [µM] | IC50 [3] [µM] | IC50 [4, 9] [µM] | inhibitory effect on cathepsin L (in words) [4] | IC50 [5] [µM] | IC50 [6] [µM] | IC50 [4] [µM] | LD50 Mouse oral [7] | concentration range of antiviral activity ([1]; Huh7.5.1 cells, MOI 1.0, 48 h) [nM] | CC50/EC50 Ratio (therapeutic ratio) ([1]; Huh7.5.1 cells) | LD50 relative to LD50 of disulfiram [8] | IC50 [3, 10] [µM] | fold more potent than disulfiram against PLpro ([3]; ratio of IC50 values vs disulfiram) [fold] | IC50 [5, 11] [µM] | fold more potent than disulfiram against Mpro [5]
1 | CC(C)N(C(=S)SSC(=S)N(C(C)C)C(C)C)C(C)C [RI177, tetra-IsoPropyl-thiuram disulfide] | > 60 | > 60 | > 50 | > 50 | did not seem to have any inhibitory effect | 3.8 ± 0.6 | – | – | – | – | – | – | – | – | – | –
2 | CCN(CC)C(=S)SSC(=S)N(CC)CC [Disulfiram, reference compound] | 0.5 ± 0.2 | 0.9 | – | – | – | – | 24.1 | 2.2 ± 1.4 | 1980 [29] mg/kg | – | – | – | – | – | – | –
3 | CN(C(=S)SSC(=S)N(C)c1ccccc1)c1ccccc1 [RI176, di-Methyl-di-Phenyl-thiuram disulfide] | – | – | > 50 | > 50 | did not seem to have any inhibitory effect | > 50 | – | – | – | – | – | – | – | – | – | –
4 | S=C(SSC(=S)N1CCOCC1)N1CCOCC1 [RI173, di-Morpholine-thiuram disulfide] | 0.1 | 0.3 | – | 1.7 ± 0.6 | – | – | – | – | 3250 [31] mg/kg | 100 to 200 | 3 | approximately 1.6 times | 0.2 ± 0.1 | 19 | 0.6 ± 0.1 | 2.5 fold
5 | CN1CCN(C(=S)SSC(=S)N2CCN(C)CC2)CC1 [RI171, di-4-Methylpiperazine-thiuram disulfide] | 1.9 ± 0.2 | 1.7 | – | 4.5 ± 0.7 | – | – | – | – | 100 [26] mg/kg | – | 0.9 | – | 1.9 ± 0.1 | – | 3.2 ± 0.1 | –
6 | S=C(SSC(=S)N1CCCC1)N1CCCC1 [RI172, di-Pyrrolidine-thiuram disulfide] | < 0.08 | < 0.08 | 0.7 | – | – | 0.6 ± 0.1 | – | 0.2 | – | – | – | – | – | – | – | 2.5 fold
7 | CCOC(=S)SSC(=S)OCC [RI175, O,O-di-Ethyl dithiobis-thioformate] | > 60 | > 60 | 0.6 ± 0.1 | – | – | 0.3 ± 0.1 | – | 1.9 ± 0.6 | 1200 [32] mg/kg | – | – | – | – | – | – | about 5 fold
8 | CN(C)C(=S)SSC(=S)N(C)C [RI174, tetra-Methyl-thiuram disulfide] | < 0.08 | < 0.08 | 0.6 | – | – | 2 ± 0.3 | – | 16.9 ± 6.9 | 1350 [33] mg/kg | – | – | – | – | – | – | –
